Laboratory results reported in patent publication US12012390B2, “Flavone compounds for the treatment and prophylaxis of hepatitis B virus disease” (priority 2018, dated 2024).
pIC50: −log10 of the molar value.

Tested on: HBV in primary human hepatocytes (PHH)
Assay: Cryopreserved primary human hepatocytes (PHH) HBV infection assay
Type: cell-based
Details: Hepatitis B virus, Hepatocyte, 216 h, HBV-infected cryopreserved PHH, 9 days post-compound treatment, extracellular HBsAg by CLIA; read-out: HBsAg IC50
How it was run: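 Cryopreserved PHH (5.8×10^4 cells/well) were infected with 5.8×10^6 HBV genome equivalents in 4% PEG8000/1% DMSO medium. Extracellular HBsAg was measured by CLIA and HBV DNA by qPCR, with IC50 from 4-parameter logistic fits.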

Question: `O=C(O)C1CC(OCCOc2ccc(-c3cc(=O)c4cccc(Cl)c4o3)cc2)C1` (stereo not shown) [Example 1, 3-[2-[4-(8-chloro-4-oxo-chromen-2-yl)phenoxy]ethoxy]cyclobutanecarboxylic acid] was tested. Which pIC50 did it give?
Answer: 6.89
